Tested on: PDC KRAS tumor spheroids with HUVEC/MSC, viability
Experiment: Anticancer human tumor 349418-098-R-PDC patient-derived lung adenocarcinoma cell line growth inhibition [KRAS2]
Settings: for IC50: curve of first compound; for viability, T/C: stronger effect = lower value
Summary of the method: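 Combination screen of spheroid viability in tumor-cell co-cultures with endothelial (HUVEC) and mesenchymal stem cell stroma. Each agent was tested in half-log dilutions, topping at clinical Cmax or at 10 microM without a known Cmax.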

[1] = second compound 0.1 µM, first compound 0.0316 µM
[2] = second compound 0.1 µM, first compound 0.1 µM
[3] = second compound 0.1 µM, first compound 0.316 µM
[4] = second compound 0.1 µM, first compound 1 µM
[5] = second compound 0.1 µM, first compound 3.16 µM
[6] = second compound 0.1 µM, first compound 10 µM
[7] = second compound 0.316 µM, first compound 0.0316 µM
[8] = second compound 0.316 µM, first compound 0.1 µM
[9] = second compound 0.316 µM, first compound 0.316 µM
[10] = second compound 0.316 µM, first compound 1 µM
[11] = second compound 0.316 µM, first compound 3.16 µM
[12] = second compound 0.316 µM, first compound 10 µM
[13] = second compound 1 µM, first compound 0.0316 µM
[14] = second compound 1 µM, first compound 0.1 µM
[15] = second compound 1 µM, first compound 0.316 µM
[16] = second compound 1 µM, first compound 1 µM
[17] = second compound 1 µM, first compound 3.16 µM
[18] = second compound 1 µM, first compound 10 µM
[19] = second compound 3.16 µM, first compound 0.0316 µM
[20] = second compound 3.16 µM, first compound 0.1 µM
[21] = second compound 3.16 µM, first compound 0.316 µM
[22] = second compound 3.16 µM, first compound 1 µM
[23] = second compound 3.16 µM, first compound 3.16 µM
[24] = second compound 3.16 µM, first compound 10 µM
[25] = second compound 10 µM, first compound 0.0316 µM
[26] = second compound 10 µM, first compound 0.1 µM
[27] = second compound 10 µM, first compound 0.316 µM
[28] = second compound 10 µM, first compound 1 µM
[29] = second compound 10 µM, first compound 3.16 µM
[30] = second compound 10 µM, first compound 10 µM
[31] = second compound 0.1 µM, first compound 0.01 µM
[32] = second compound 0.316 µM, first compound 0.01 µM
[33] = second compound 1 µM, first compound 0.01 µM
[34] = second compound 3.16 µM, first compound 0.01 µM
[35] = second compound 10 µM, first compound 0.01 µM
[36] = second compound 0.1 µM, first compound 0.00316 µM
[37] = second compound 0.316 µM, first compound 0.00316 µM
[38] = second compound 1 µM, first compound 0.00316 µM
[39] = second compound 3.16 µM, first compound 0.00316 µM
[40] = second compound 10 µM, first compound 0.00316 µM
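Also: spheroids exposed to compounds for seven days before readout.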

| SMILES | IC50 (second compound 0.1 µM) | IC50 (second compound 0.316 µM) | IC50 (second compound 1 µM) | IC50 (second compound 3.16 µM) | IC50 (second compound 10 µM) | viability, T/C [1] | viability, T/C [2] | viability, T/C [3] | viability, T/C [4] | viability, T/C [7] | viability, T/C [8] | viability, T/C [9] | viability, T/C [10] | viability, T/C [13] | viability, T/C [14] | viability, T/C [15] | viability, T/C [19] | viability, T/C [20] | viability, T/C [25] | viability, T/C [26] | other results |
| --- | --- | --- | --- | --- | --- | --- | --- | --- | --- | --- | --- | --- | --- | --- | --- | --- | --- | --- | --- | --- | --- |
| CC(C)NCC(C(=O)N1CCN(c2ncnc3c2C(C)CC3O)CC1)c1ccc(Cl)cc1 (stereo not given) + CC1OCC2(CCN(c3cnc(Sc4ccnc(N)c4Cl)c(N)n3)CC2)C1N | 270 nM | 271 nM | 472 nM | 358 nM | 401 nM | 98.9% | 78.6% | 42.5% | 25.8% | 100% | 77.7% | 43% | 25.9% | 98.2% | 85.1% | 61.7% | 92.8% | 80.4% | 87.1% | 83.6% | viability, T/C [5]: 13.9%; viability, T/C [6]: 7.23%; viability, T/C [11]: 14.5%; viability, T/C [12]: 6.51%; viability, T/C [16]: 28.7%; viability, T/C [17]: 17.4%; viability, T/C [18]: 7.82%; viability, T/C [21]: 51.8%; viability, T/C [22]: 26.4%; viability, T/C [23]: 19.8%; viability, T/C [24]: 7.52%; viability, T/C [27]: 51.5%; viability, T/C [28]: 31%; viability, T/C [29]: 15.3%; viability, T/C [30]: 7.92% |
| CC1COCCN1c1cc(-c2ccnn2C)c2ccnc(-c3ccn[nH]3)c2n1 (stereo not given) + CC1OCC2(CCN(c3cnc(Sc4ccnc(N)c4Cl)c(N)n3)CC2)C1N | 30.4 nM | 26.9 nM | 37.8 nM | 37.4 nM | 25.4 nM | 48.2% | 9.73% | 7% | 4.41% | 39.4% | 9.52% | 7.35% | 4.82% | 56.9% | 12.2% | 7.13% | 56.8% | 10.1% | 40.6% | 9.52% | viability, T/C [31]: 98.1%; viability, T/C [5]: 4.8%; viability, T/C [32]: 115%; viability, T/C [11]: 4.26%; viability, T/C [33]: 117%; viability, T/C [16]: 5.99%; viability, T/C [17]: 4.5%; viability, T/C [34]: 97.7%; viability, T/C [21]: 6.94%; viability, T/C [22]: 4.63%; viability, T/C [23]: 4.81%; viability, T/C [35]: 89.6%; viability, T/C [27]: 5.38%; viability, T/C [28]: 4.95%; viability, T/C [29]: 4.71% |
| CCN1CCN(Cc2ccc(Nc3ncc(F)c(-c4cc(F)c5nc(C)n(C(C)C)c5c4)n3)nc2)CC1 + CC1OCC2(CCN(c3cnc(Sc4ccnc(N)c4Cl)c(N)n3)CC2)C1N | 5.38 nM | 3.38 nM | 7.27 nM | 7.9 nM | 6.16 nM | 21.4% | 14.6% | 13.6% | 4.93% | 18.1% | 23.4% | 10.2% | 6.35% | 21.1% | 16.4% | 10.7% | 23.7% | 18.1% | 18.2% | 15.1% | viability, T/C [36]: 66.4%; viability, T/C [31]: 28.3%; viability, T/C [37]: 50.9%; viability, T/C [32]: 37.3%; viability, T/C [38]: 70.2%; viability, T/C [33]: 43.6%; viability, T/C [16]: 3.95%; viability, T/C [39]: 61.6%; viability, T/C [34]: 49.8%; viability, T/C [21]: 10.1%; viability, T/C [22]: 3.58%; viability, T/C [40]: 68.6%; viability, T/C [35]: 36.7%; viability, T/C [27]: 9.7%; viability, T/C [28]: 3.29% |
| CCNC(=O)CC1N=C(c2ccc(Cl)cc2)c2cc(OC)ccc2-n2c(C)nnc21 (stereo not given) + CC1OCC2(CCN(c3cnc(Sc4ccnc(N)c4Cl)c(N)n3)CC2)C1N | 112 nM | 133 nM | 148 nM | 183 nM | 196 nM | 106% | 50.3% | 28.4% | 11.3% | 103% | 58.8% | 23.6% | 10.1% | 136% | 60.9% | 28.8% | 103% | 73.9% | 109% | 80% | viability, T/C [5]: 3.22%; viability, T/C [6]: 1.09%; viability, T/C [11]: 2.91%; viability, T/C [12]: 1.3%; viability, T/C [16]: 8.35%; viability, T/C [17]: 2.56%; viability, T/C [18]: 1.67%; viability, T/C [21]: 27.6%; viability, T/C [22]: 10.3%; viability, T/C [23]: 2.56%; viability, T/C [24]: 1.16%; viability, T/C [27]: 28.3%; viability, T/C [28]: 7.82%; viability, T/C [29]: 2.1%; viability, T/C [30]: 0.96% |
| Cn1nccc1Nc1nccc(-c2cc3c(s2)C(C)(C)N(CCN2CCOCC2)C3=O)n1 + CC1OCC2(CCN(c3cnc(Sc4ccnc(N)c4Cl)c(N)n3)CC2)C1N | 54.2 nM | 44.6 nM | 32.5 nM | 36.4 nM | < 31.6 nM | 68.8% | 27% | 17.7% | 8.51% | 61.4% | 23.7% | 7.24% | 6.49% | 51.1% | 18.4% | 8.88% | 54.6% | 19.7% | 47.9% | 18.8% | viability, T/C [5]: 5.52%; viability, T/C [6]: 4.04%; viability, T/C [11]: 4.43%; viability, T/C [12]: 4.11%; viability, T/C [16]: 4.35%; viability, T/C [17]: 4.16%; viability, T/C [18]: 4.13%; viability, T/C [21]: 7.87%; viability, T/C [22]: 3.17%; viability, T/C [23]: 2.99%; viability, T/C [24]: 3.09%; viability, T/C [27]: 6.03%; viability, T/C [28]: 2.89%; viability, T/C [29]: 2.98%; viability, T/C [30]: 2.7% |
| Cn1ncnc1[C@H]1c2n[nH]c(=O)c3cc(F)cc(c23)N[C@@H]1c1ccc(F)cc1 + CC1OCC2(CCN(c3cnc(Sc4ccnc(N)c4Cl)c(N)n3)CC2)C1N | > 100 nM | > 100 nM | > 100 nM | > 100 nM | > 100 nM | 88.6% | 85.8% |  |  | 83.3% | 73.9% |  |  | 82.6% | 76% |  | 73.7% | 74.2% | 62.8% | 61.9% | viability, T/C (second compound 0.1 µM, first compound 0.000316 µM): 105%; viability, T/C (second compound 0.1 µM, first compound 0.001 µM): 102%; viability, T/C [36]: 95.9%; viability, T/C [31]: 95.7%; viability, T/C (second compound 0.316 µM, first compound 0.000316 µM): 93.5%; viability, T/C (second compound 0.316 µM, first compound 0.001 µM): 97.2%; viability, T/C [37]: 95.6%; viability, T/C [32]: 87.5%; viability, T/C (second compound 1 µM, first compound 0.000316 µM): 95.8%; viability, T/C (second compound 1 µM, first compound 0.001 µM): 93%; viability, T/C [38]: 92.2%; viability, T/C [33]: 83.8%; viability, T/C (second compound 3.16 µM, first compound 0.000316 µM): 90.3%; viability, T/C (second compound 3.16 µM, first compound 0.001 µM): 83.1%; viability, T/C [39]: 83.3%; viability, T/C [34]: 79.8%; viability, T/C (second compound 10 µM, first compound 0.000316 µM): 78.9%; viability, T/C (second compound 10 µM, first compound 0.001 µM): 74.4%; viability, T/C [40]: 76.7%; viability, T/C [35]: 66.7% |
